“Also recorded” adds a separate entry of the source. No end group written: not given here.
Tests used:
HFD-fed WT mice = experiment: CST treatment of HFD-fed WT mice; type: in vivo
Excerpt: FIG. 12. Metabolic phenotypes in HFD-fed CST-KO mice. (A) CST-KO mice eat more 60% HFD than WT. (B) CST-KO mice gained more weight than WT. (C) Heightened glucose resistance at baseline in CST-KO mice compared to WT mice. […] Figures in parentheses indicate number of animals.

[1] = tested on: adipose tissue explants from DIO mice; experiment: Lipolysis and fatty acid oxidation in adipose explants of DIO mice; type: cell-based
Protocol: FIG. 8. Lipolysis and fatty acid oxidation in the adipose tissue explants of DIO and Ob/Ob mice after treatment with saline or CST for 16 days. Explants were incubated with saline or leptin (1 μM) for 3 hr and the concentrations of glycerol (A&C) and NEFA (B&D) released into the media from DIO (A&B) and Ob/Ob (C&D) explants were determined as a measure of lipolysis. Homogenates of the explants from DIO (E) and Ob/Ob […] were used to determine their capacity for oxidation of U-^14C-palmitate in response to the treatment with saline, CST, leptin and CST+leptin. The ^14CO2 released was captured and counted as the measure of fatty acid oxidation.
Adipose tissue explants were prepared as described (42). Epididymal fat pads from 12 hr fasted WT, Chga-KO, DIO and Ob/Ob mice with or without CST treatment were collected in Kreb-Ringer-phosphate (KRP) buffer containing 10 mM Hepes and 0.5% BSA. Tissues were minced to 1-2 mm size and treated with 100 nM CST, 1 μM leptin, or saline for 30 min (for signaling analysis) or 3 hr (for lipolysis and β-oxidation assays). Explants were also treated acutely with CST, leptin, a combination, or saline. At the end, incubation media were saved for analysis of glycerol and fatty acid release. Explants were washed prior to homogenization for immunoblotting and analysis of fatty acid oxidation.
Oxidation of radiolabeled palmitate in the homogenates of adipose tissue explants as described previously (45). For oxidation studies of cultured cells, HepG2 (hepatocytes) and 3T3-L1 preadipocytes were obtained from ATCC and cultured following supplier's protocol. Confluent 3T3-L1 cultures were differentiated into adipocytes by treating with a cocktail of dexamethasone (100 nM), IBMX ([…]) and insulin (100 nM) for 10 days. Media were then switched to serum-free DMEM with 1% BSA. Hepatocytes were assayed for lipogenesis and fat oxidation in response to CST treatment. Serum-free cultures were treated with CST (100 nM) for 24 hr followed by a 2 hr incubation with U^14C-palmitate (0.5 μCi/ml). Fatty acid oxidation in cells was determined by modifying a published method (46). Specifically, the culture media in 24-well plates were acidified with 10% HClO4 after incubation with the labeled fatty acid and immediately covered with a thick filter paper sheet (cut to size) soaked in 2 N NaOH and placed underneath the plastic lid. The whole plate was sealed with parafilm. After further incubation for 2 hr, the filter paper sheet was marked as circles around the rim of the wells and then the circles were excised. The filter discs were counted to determine the amount of ^14CO2 absorbed in the papers. Cells in the culture wells were lysed in 1 N NaOH and protein content was assayed using Folin's reagent (BioRad, Hercules, Calif.).

[2] = tested on: PC-12 neuroendocrine cells; experiment: cAMP production in PC-12 cells; type: cell-based
Chga-KO mice = experiment: Chronic CST administration to Chga-KO mice: adiposity, plasma lipids, leptin; type: in vivo
Protocol: FIG. 1. Plasma parameters of wild-type (WT) and Chga-KO mice treated with saline or CST. (A) Plasma CST from saline or CST (5 μg/g BW, i.p./day) treated WT mice (28 week old) on normal chow (NCD) and high fat diet (60% fat for 16 weeks) as well as from Chga-KO mice (28 week old) on NCD. Body weights (B) and epididymal fat pad size normalized to body weight (C) in 28 week old WT and Chga-KO mice treated with saline or CST for 12 days. Plasma triglyceride (TG) (D), glycerol (E), non-esterified fatty acids (NEFA) (F), and leptin (G) in 28 week old WT and Chga-KO mice after treatment with saline or CST for 12 days. (H) Leptin in adipocyte culture media after treatment with saline or CST.
FIG. 2. Comparison of epididyaml fat pads between saline or CST-treated Chga-KO mice. Adipose tissue was compared after 12 days of treatment with saline (A) or CST (5 μg/g BW, i.p./day) (B). *indicates epididymal fat pad.
(§1) Adult male (7 month old) WT (31.8±1.2 g) and Chga-KO (39.2±1.5 g) mice in the mixed genetic background (129SvJ×C57BL/6) were studied. Both genotypes were generated from the original founder carrying mixed genotype (50% 129SvJ, 50% C57BL/6) and were maintained by sibling mating. Animals were kept in a 12 hr dark/light cycle and fed standard chow ad libitum. Male C57BL/6 mice, 8 week old, were fed 60% high fat diet (D12492: Research Diets, Inc., New Brunswick) for 16 weeks before using for experiments. Male leptin-deficient (C57BL/6J-Ob/Ob) mice from the Jackson Laboratory were maintained on a standard chow diet. The Institutional Animal Care and Utilization Committee approved all procedures. Chga-KO, DIO and Ob/Ob mice were treated daily with saline or CST (5 μg/g BW, i.p.; 12 days for Chga-KO mice and 16 days for DIO and Ob/Ob mice).
(§2) Mice were fasted for 12 hr prior to blood draw. Triglycerides (TG) and non-esterified fatty acids (NEFA) were assayed using kits from Wako Diagnostics (Richmond, Va.). Glycerol was assayed using a kit from Sigma (St Louis, Mo.). Media from the explant cultures and mouse serum were analysed for glycerol and NEFA as a measure of lipolysis. ELISA kits were used to determine plasma levels of leptin, adiponectin (Millipore, Billerica, Mass.) and CST (Bachem, Torrance, Calif.). For CST assay, plasma samples and reference standards were passed through mini C18 columns and the flow-through fractions were assayed. The same kits were used for measurements in culture media.

[3] = Insulin secretion in culture; type: cell-based
Ob/Ob mice = experiment: CST administration to Ob/Ob mice for 16 days; type: in vivo
Protocol: FIG. 7. Effects of CST administration to DIO and Ob/Ob mice on food intake, body weight, adipose tissue weight, and lipolysis. CST (5 μg/g BW, i.p./day) or saline was administered to DIO and Ob/Ob mice for 16 days. Food intake for DIO mice (A) and Ob/Ob mice (B) was measured every other day. Percent changes in final body weight and WAT mass (as % of body weight) were determined for DIO (C) and Ob/Ob (D) mice. Plasma glycerol (E) and NEFA (F) were quantified for DIO and Ob/Ob mice at the end of CST treatment.
as §1, §2

[4] = CST in vivo 16 days, leptin 1 μM ex vivo 3 hr
[5] = CST 5 μg/g BW i.p./day for 12 days

For SSMKLSFRARAYGFRGPGPQL [CST], the “basal plasma insulin level” value (HFD-fed WT mice) was “decreased; also recorded: reduced hyperinsulinemia”, the insulin sensitivity (HFD-fed WT mice) was “improvement in insulin sensitivity; also recorded: sensitive to insulin” and the palmitate oxidation [1] was “neither CST nor leptin alone stimulated oxidation”. The “NEFA release in the media” value [1, 4] was “not significant”, the “glycerol release in the media” value [1, 4] was “can release some glycerol in the media” and the “basal or isoproterenol-induced cAMP levels” value [2] was “did not modulate”. For the same sequence, the cAMP production ([2]; CST 100 nM, ISO 10 μM, 10 min) was “not by CST”, the food intake (Chga-KO mice) was “did not increase food intake” and the body weight (Chga-KO mice; [5]) was “without affecting body weight”. For the same sequence, the “epididymal fat pad size” value (Chga-KO mice; [5]) was “reduced epididymal fat pad size to WT level”, the “plasma NEFA level” value (Chga-KO mice; CST 12 days) was “increased” and the “plasma TG levels” value (Chga-KO mice; CST 12 days) was “decreased plasma TG levels”. For the same sequence, the plasma glycerol level (Chga-KO mice; CST 12 days) was “increased”, the plasma leptin (Chga-KO mice; CST 12 days) was “lowered plasma leptin to a level below WT” and the “insulin secretion in culture” value [3] was “Stimulated Insulin Secretion in Culture in a Glucose-Independent Manner”. The food intake (Ob/Ob mice; CST 5 μg/g BW i.p./day 16 days) was “started to level off”, the adipose tissue mass (Ob/Ob mice; CST 16 days) was “not reflected in any decrease in body weight or adipose tissue mass” and the body weight (Ob/Ob mice; CST 16 days) was “not reflected in any decrease in body weight”. The “plasma concentration of NEFA (lipolysis)” value (Ob/Ob mice; CST 16 days) was “not affected” and the “plasma concentration of glycerol (lipolysis)” value (Ob/Ob mice; CST 16 days) was “not affected”.
